According to ChEMBL document CHEMBL1641470, “New azoles with antifungal activity: Design, synthesis, and molecular docking” (2011):
Converted amounts (≈) assume the structure as drawn.

Tests used:
Format in all cases: functional
Candida albicans = experiment: Antifungal activity against Candida albicans ATCC Y0109 after 24 hrs by broth microdilution method
Aspergillus fumigatus = experiment: Antifungal activity against Aspergillus fumigatus by broth microdilution method
Candida tropicalis = experiment: Antifungal activity against Candida tropicalis by broth microdilution method
Candida parapsilosis = experiment: Antifungal activity against Candida parapsilosis by broth microdilution method; conditions: Lodderomyces parapsilosis
Trichophyton rubrum = experiment: Antifungal activity against Trichophyton rubrum by broth microdilution method
Fusarium = experiment: Antifungal activity against Fusarium by broth microdilution method
Cryptococcus neoformans = experiment: Antifungal activity against Cryptococcus neoformans ATCC BLS108 after 72 hrs by broth microdilution method
Nannizzia gypsea = experiment: Antifungal activity against Microsporum gypseum by broth microdilution method

MIC80 (Candida albicans) [µg/mL] | MIC80 (Aspergillus fumigatus) [µg/mL] | MIC80 (Candida tropicalis) [µg/mL] | MIC80 (Candida parapsilosis) [µg/mL] | MIC80 (Trichophyton rubrum) [µg/mL] | MIC80 (Fusarium) [µg/mL] | MIC80 (Cryptococcus neoformans) [µg/mL] | MIC80 (Nannizzia gypsea) [µg/mL] | Structure (SMILES)
0.0625 (≈ 0.108 µM) | 64 (≈ 111 µM) | 0.25 (≈ 0.432 µM) | 0.25 (≈ 0.432 µM) | 0.25 (≈ 0.432 µM) | 4 (≈ 6.91 µM) | 1 (≈ 1.73 µM) | 0.25 (≈ 0.432 µM) | O=C(/C=C/c1ccc(Cl)cc1)Nc1ccc(N2CCN(CC(O)(Cn3cncn3)c3ccc(F)cc3F)CC2)cc1 (stereo not given)
0.0156 (≈ 0.0254 µM) | 4 (≈ 6.52 µM) | 0.0625 (≈ 0.102 µM) | 0.0625 (≈ 0.102 µM) | 0.0156 (≈ 0.0254 µM) | 0.25 (≈ 0.408 µM) | 0.25 (≈ 0.408 µM) | 0.25 (≈ 0.408 µM) | O=C(/C=C/c1ccc(Cl)c(Cl)c1)Nc1ccc(N2CCN(CC(O)(Cn3cncn3)c3ccc(F)cc3F)CC2)cc1 (stereo not given)
0.25 (≈ 0.419 µM) | 1 (≈ 1.67 µM) | 0.0625 (≈ 0.105 µM) | 0.0156 (≈ 0.0261 µM) | 0.25 (≈ 0.419 µM) | 0.25 (≈ 0.419 µM) | 0.25 (≈ 0.419 µM) | 0.0625 (≈ 0.105 µM) | O=C(/C=C/c1ccc(Cl)cc1)Nc1ccc(N2CCN(CC(O)(Cn3cncn3)c3ccc(F)cc3F)CC2)c(F)c1 (stereo not given)

Continued, compound first:

Structure (SMILES) | MIC80 (Candida albicans) [µg/mL] | MIC80 (Aspergillus fumigatus) [µg/mL] | MIC80 (Candida tropicalis) [µg/mL] | MIC80 (Candida parapsilosis) [µg/mL] | MIC80 (Trichophyton rubrum) [µg/mL] | MIC80 (Fusarium) [µg/mL] | MIC80 (Cryptococcus neoformans) [µg/mL] | MIC80 (Nannizzia gypsea) [µg/mL]
O=C(/C=C/c1ccccc1)Nc1ccc(N2CCN(CC(O)(Cn3cncn3)c3ccc(F)cc3F)CC2)c(F)c1 (stereo not given) | 0.25 (≈ 0.444 µM) | 1 (≈ 1.78 µM) | 0.0625 (≈ 0.111 µM) | 0.0625 (≈ 0.111 µM) | 0.0625 (≈ 0.111 µM) | 0.25 (≈ 0.444 µM) | 0.0156 (≈ 0.0277 µM) | 0.25 (≈ 0.444 µM)
O=C(/C=C/c1cccc(Br)c1)Nc1ccc(N2CCN(CC(O)(Cn3cncn3)c3ccc(F)cc3F)CC2)c(F)c1 (stereo not given) | 1 (≈ 1.56 µM) | 4 (≈ 6.24 µM) | 0.0625 (≈ 0.0974 µM) | 0.25 (≈ 0.39 µM) | 0.25 (≈ 0.39 µM) | 1 (≈ 1.56 µM) | 0.0156 (≈ 0.0243 µM) | 0.25 (≈ 0.39 µM)
